Test results as given in patent publication US20020115642A1, “Beta-lactam antibiotics” (priority 2000, published 2002).
In brackets after ≈: the same amount, converted by molar mass. Like-named read-outs stand apart in the source and are kept apart here.

How the values were obtained:
[1] = tested on: E. coli/TEM-1; assay: Susceptibility testing (MIC, modified NCCLS method); format: cell-based, Escherichia coli
Protocol: (§1) The NCCLS (National Committee for Clinical Laboratory Standards) method to determine MIC's of antimicrobial compounds was modified for high-throughput screening. All stocks of tested compounds were prepared in either water or in dimethylsulfoxide (DMSO), depending on the solubility. […] Briefly 20 2-fold serial dilutions of testing compounds from the highest concentration were made in a 384-well microtiter plate. Each well was inoculated with testing bacteria in broth to a final concentration of approximately 1-1.5×10^6 cells/ml. Bacterial growth was determined by the increase of optical density at 600 nm using a microplate reader (Tecan SpectraFluor Plus).

[2] = tested on: E. coli N; assay: as above; format: cell-based, Escherichia coli; conditions: E. coli (N)
Protocol: as §1

[3] = tested on: Staphylococcus aureus; assay: as above; format: cell-based
Protocol: as §1

[4] = tested on: K. pneumoniae; assay: as above; format: cell-based, Klebsiella pneumoniae
Protocol: as §1

[5] = tested on: E. cloacae; assay: as above; format: cell-based, Enterobacter cloacae; conditions: E. cloacae ATCC 23355
Protocol: as §1

[6] = tested on: P. aeruginosa; assay: as above; format: cell-based, Pseudomonas aeruginosa
Protocol: as §1

[7] = tested on: E. faecalis; assay: as above; format: cell-based, Enterococcus faecalis
Protocol: as §1

[8] = tested on: E. aerogenes; assay: as above; format: cell-based, Enterobacter aerogenes; conditions: E. aerogenes ATCC 35028
Protocol: as §1

[9] = tested on: E. coli C(Tem3 1-27); assay: Inhibition of bacterial growth (IC50, OD600); format: cell-based; conditions: for IC50: Cell C (Tem31-27)
Protocol: (§2) Compounds of the invention were tested for their ability to inhibit the growth of β-lactam sensitive and resistant bacteria by contacting samples of such cells with various dilutions of the compositions, incubating the cells at 37° C. in the presence of these compositions and then measuring the number of viable cells present in each sample.
(§3) Two compounds of the invention were tested, Compound (9) and Compound (1l). Incubation of bacterial cells was performed for two time periods, 10 hours and 20 hours. Four E. coli strains were used for the test. These strains were all derived from the strain NovaBlue (NovaGen Inc., Madison, Wis.). E. coli N is a normal, β-lactam sensitive strain. E coli R(Tem1) is a β-lactam resistant strain with a β-lactamase gene on a plasmid. E. coli C(Tem4O-15) is a β-lactam resistant strain with a β-lactam inhibitor resistant β-lactamase gene, and E. coli C(Tem3 1-27) is β-lactam resistant strain with an alternative β-lactam inhibitor resistant β-lactamase gene.
(§4) The various E. coli strains were each treated with dilutions of the compounds of the invention. […] The number of viable cells at each time point was determined by measuring the OD600 of each cell sample.
(§5) After measuring the number of viable cells present, the IC50 for each sample was determined. […] In addition, both compounds were effective at inhibiting the growth of both antibiotic sensitive and resistant bacterial cells.

[10] = tested on: E. coli N; assay: Inhibition of bacterial growth (IC50, OD600); format: cell-based; conditions: Cell N
Protocol: as §2, §3, §4, §5

[11] = tested on: E. coli C(Tem4O-15); assay: Inhibition of bacterial growth (IC50, OD600); format: cell-based; conditions: for IC50: Cell C (Tem40-15)
Protocol: as §2, §3, §4, §5

[12] = tested on: E coli R(Tem1); assay: Inhibition of bacterial growth (IC50, OD600); format: cell-based; conditions: for IC50 ratio N/R: N versus R (Tem1); for IC50: Cell R (Tem1)
Protocol: as §2, §3, §4, §5

[13] = read-out: IC50 10 hours, 10 hours
[14] = read-out: IC50 20 hours, 20 hours

O=C(COc1ccc(O)cc1)NC1C(=O)N2C(C(=O)O)=C(COc3cc(Cl)ccc3Oc3ccc(Cl)cc3Cl)CS[C@H]12 (stereo partly shown) [Compound 40, 3-(2-(2,4-dichlorophenoxy)-5-chlorophenoxy)methyl-7-[2-(4-hydroxyphenoxy)acetamido]-3-cephem-4-carboxylic acid]
MIC ([1]; Escherichia coli): 0.063 µg/mL (≈ 0.0966 µM)
MIC ([2]; Escherichia coli, read-out: MIC): 0.5 µg/mL (≈ 0.767 µM)
MIC ([3]; Staphylococcus aureus, ATCC11632, S. aureus ATCC 11632, read-out: MIC): 16 µg/mL (≈ 24.5 µM)
MIC ([3]; Staphylococcus aureus, ATCC33591, S. aureus ATCC 33591, read-out: MIC): 0.125 µg/mL (≈ 0.192 µM)
MIC ([3]; Staphylococcus aureus, ATCC33594, S. aureus ATCC 33594, read-out: MIC): 0.063 µg/mL (≈ 0.0966 µM)
MIC ([3]; Staphylococcus aureus, ATCC700260, S. aureus ATCC 700260, read-out: MIC): 4 µg/mL (≈ 6.14 µM)
MIC ([3]; Staphylococcus aureus, ATCC700699, S. aureus ATCC 700699, read-out: MIC): 32 µg/mL (≈ 49.1 µM)
MIC ([4]; Klebsiella pneumoniae, ATCC51503, K. pneumoniae ATCC 51503, read-out: MIC): 16 µg/mL (≈ 24.5 µM)
MIC ([4]; Klebsiella pneumoniae, ATCC700721, K. pneumoniae ATCC 700721, read-out: MIC): 2 µg/mL (≈ 3.07 µM)
MIC ([5]; Enterobacter cloacae, ATCC23355, read-out: MIC): 16 µg/mL (≈ 24.5 µM)
MIC ([6]; Pseudomonas aeruginosa, ATCC21726, P. aeruginosa ATCC 21726, read-out: MIC): > 32 µg/mL
MIC ([6]; Pseudomonas aeruginosa, ATCC29872, P. aeruginosa ATCC 29872, read-out: MIC): > 32 µg/mL
MIC ([7]; Enterococcus faecalis, ATCC49757, E. faecalis ATCC 49757, read-out: MIC): 16 µg/mL (≈ 24.5 µM)
MIC ([7]; Enterococcus faecalis, ATCC700802, E. faecalis ATCC 700802, read-out: MIC): 16 µg/mL (≈ 24.5 µM)
MIC ([8]; Klebsiella aerogenes, ATCC35028, read-out: MIC): 32 µg/mL (≈ 49.1 µM)

O=C(Cc1cnc[nH]1)NC1C(=O)N2C(C(=O)O)=C(COc3cc(Cl)ccc3Oc3ccc(Cl)cc3Cl)CS[C@H]12 (stereo partly shown) [Compound 31, 3-(2-(2,4-Dichlorophenoxy)-5-chlorophenoxy)methyl-7-[2-(3H-imidazol-4-yl)]-acetamido-3-cephem-4-carboxylic acid]
MIC ([1]; E. coli/Tem-1): 0.063 µg/mL (≈ 0.103 µM)
MIC [2]: 0.25 µg/mL (≈ 0.41 µM)
MIC ([3]; S. aureus ATCC 11632): 16 µg/mL (≈ 26.2 µM)
MIC ([3]; S. aureus ATCC 33591): 16 µg/mL (≈ 26.2 µM)
MIC ([3]; S. aureus ATCC 33594): 0.063 µg/mL (≈ 0.103 µM)
MIC ([3]; S. aureus ATCC 700260): 32 µg/mL (≈ 52.5 µM)
MIC ([3]; S. aureus ATCC 700699): 32 µg/mL (≈ 52.5 µM)
MIC ([4]; K. pneumoniae ATCC 51503): 32 µg/mL (≈ 52.5 µM)
MIC ([4]; K. pneumoniae ATCC 700721): 0.5 µg/mL (≈ 0.82 µM)
MIC [5]: 16 µg/mL (≈ 26.2 µM)
MIC ([6]; P. aeruginosa ATCC 21726): >32 µg/mL
MIC ([6]; P. aeruginosa ATCC 29872): >32 µg/mL
MIC ([7]; E. faecalis ATCC 49757): 32 µg/mL (≈ 52.5 µM)
MIC ([7]; E. faecalis ATCC 700802): >32 µg/mL
MIC [8]: 16 µg/mL (≈ 26.2 µM)

3-(2-(2,4-Dichlorophenoxy)-5-chlorophenoxy)methyl-7-(2-thienylacetamido)-1-oxo-3-cephem-4-carboxylate [Compound 11]
MIC ([3]; S. aureus ATCC 700260): 0.0078 µg/mL
MIC ([3]; S. aureus ATCC 700699): 1 µg/mL
MIC ([4]; K. pneumoniae ATCC 700721): 4 µg/mL
IC50 ratio (C/R or N/C) ([9]; 10 hours, line of C (Tem31-27)): N/C = 6.7x
IC50 ratio (given C/R or N/R) ([9]; 20 hours, line of C (Tem31-27)): N/R = 2.9x
IC50 [9, 13]: 1110 nM
IC50 [9, 14]: 1480 nM
IC50 ([10]; read-out: IC50 10 hours, 10 hours, 37° C.): 7480 nM
IC50 [10, 14]: 4240 nM
IC50 ratio (C/R or N/C) ([11]; 10 hours, line of C (Tem40-15)): N/C = 20x
IC50 ratio (given C/R or N/R) ([11]; 20 hours, line of C (Tem40-15)): N/R = 6.5x
IC50 [11, 13]: 369 nM
IC50 [11, 14]: 653 nM
IC50 ratio N/R ([12]; 10 hours): N/R = 1388x
IC50 ratio N/R ([12]; 20 hours): N/R = 120x
IC50 [12, 13]: 5.39 nM
IC50 [12, 14]: 35.3 nM
MIC ([6]; P. aeruginosa ATCC 21726): >64 µg/mL
MIC ([6]; P. aeruginosa ATCC 29872): >64 µg/mL
